Measurements as given in US8318746B2, “Nitrogen-containing five-membered heterocyclic compound” (Takeda Pharmaceutical Company Limited, priority 2007, dated 2012).

Target: T1, GST-hLGK1 (GST added to the amino terminal of human liver GK) (Homo sapiens, UniProt P35557)
T1 construct: with a BamHI site added to immediately before the initiation codon; made in house; host or cells: Escherichia coli BL21 (Stratagene), plasmid pGEX6P-2/hLGK1
T1 sequence (P35557 1-464 isoform P35557-3): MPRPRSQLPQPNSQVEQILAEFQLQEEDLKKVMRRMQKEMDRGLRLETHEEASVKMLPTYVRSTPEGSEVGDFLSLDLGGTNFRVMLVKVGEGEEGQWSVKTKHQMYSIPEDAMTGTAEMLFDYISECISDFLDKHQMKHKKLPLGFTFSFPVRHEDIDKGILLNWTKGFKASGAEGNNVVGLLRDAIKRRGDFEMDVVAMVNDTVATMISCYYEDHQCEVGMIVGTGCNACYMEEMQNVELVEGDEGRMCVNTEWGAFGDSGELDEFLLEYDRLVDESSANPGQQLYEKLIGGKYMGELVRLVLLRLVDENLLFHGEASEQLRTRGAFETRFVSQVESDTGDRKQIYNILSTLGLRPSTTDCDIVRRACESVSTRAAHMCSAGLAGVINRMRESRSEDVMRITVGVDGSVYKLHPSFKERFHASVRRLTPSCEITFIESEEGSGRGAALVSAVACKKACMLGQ
Assay: Measurement of GK activation value
Assay type: biochemical
Conditions: test compound final concentration 10 μmol/L; reaction rate divided by that of control group (50% DMSO without test compound); Mant-ATP substrate, D-glucose, 37° C., 60 min
Protocol: To each well of a 384-well black plate (Nalge Nunc International K.K.) was added 5 μL of 50% dimethyl sulfoxide solution containing test compound diluted to 100 μmol/L. Then, GST-hLGK1 obtained in Reference Example 2A was diluted with measurement buffer (containing 50 mM HEPES (pH 7.4), 200 mM KCl, 5 mM MgCl2, 2.5 mM DTT and 50 μM 2′-(or-3′)—O—(N-methylanthraniloyl) adenosine 5′-triphosphate (Mant-ATP) (Jena BioScience)) to 6 μg/mL and 35 μL thereof was added to each well.
Each well was stood at 37° C. for 10 min, 25 mM D-glucose solution (10 μL) was added to start the reaction. The final concentration of the test compound was 10 μmol/L.
Each, well after the reaction was stood at 37° C. for 60 min, and the reaction was quenched by adding 25 μL of a quenching solution (containing 200 mM HEPES (pH 7.4), 20 mM MgCl2, 200 mM EDTA, 0.03% Triton-X 100, 0.3% Coating 3 reagent (Caliper Life Sciences, Inc.)).
2′-(or-3′)-O-(N-methylanthraniloyl)adenosine 5′-triphosphate (Mant-ATP, substrate) and Mant-ADP (reaction resultant product) were separated from each well after the reaction by a microchip type capillary electrophoresis apparatus 250 HTS (Caliper Life Sciences, Inc.). The reaction rate [(reaction resultant product peak height)/(reaction resultant product peak height+substrate peak height)×100(%)] was calculated from the ratio of the substrate peak height and reaction resultant product peak height obtained by fluorescence detection (excitation wavelength 355 nm, measurement wavelength 460 nm) and used as the index of GK activity.
As a control group, the reaction rate was calculated in the same manner as above except that “solution in 50% dimethyl sulfoxide (without test compound)” was used instead of “solution of test compound in 50% dimethyl sulfoxide”.
The reaction rate of the well (test compound addition group) added with the test compound was divided by the reaction rate of the control group and the obtained percentage was taken as the GK activation value (Emax) of the test compound.

SMILES	Emax at 10 µM
CS(=O)(=O)c1ccc(C(CC2CCOCC2)c2ccc(-c3ccc(C(O)CO)cn3)[nH]2)cc1Cl (stereo not shown) [Example 91, 1-[6-(5-{1-[3-chloro-4-(methylsulfonyl)phenyl]-2-(tetrahydro-2H-pyran-4-yl)ethyl}-1H-pyrrol-2-yl)pyridin-3-yl]ethane-1,2-diol]	142%
COC(OC)C(C)(O)c1cnc(-c2ccc(C(CC3CCOCC3)c3ccc(S(=O)(=O)C4CC4)cc3)[nH]2)s1 (stereo not shown) [Example 164, 2-[2-(5-{1-[4-(cyclopropylsulfonyl)phenyl]-2-(tetrahydro-2H-pyran-4-yl)ethyl}-1H-pyrrol-2-yl)-1,3-thiazol-5-yl]-1,1-dimethoxypropan-2-ol]	148%
CC(O)c1cnc(-c2ccc(C(CC3CCOCC3)c3ccc(S(C)(=O)=O)c(Cl)c3)[nH]2)s1 (stereo not shown) [Example 172, 1-[2-(5-{1-[3-chloro-4-(methylsulfonyl)phenyl]-2-(tetrahydro-2H-pyran-4-yl)ethyl}-1H-pyrrol-2-yl)-1,3-thiazol-5-yl]ethanol]	148%
CS(=O)(=O)c1ccc(C(C[C@H]2CCC(=O)C2)c2ccc(-c3ccc(CO)cn3)[nH]2)cc1Cl (stereo partly shown) [Example 197]	142%
CC(O)c1nnc(-c2ccc(C(CC3CCOCC3)c3ccc(S(=O)(=O)C4CC4)cc3)[nH]2)s1 (stereo not shown) [Example 225, 1-[5-(5-{1-[4-(cyclopropylsulfonyl)phenyl]-2-(tetrahydro-2H-pyran-4-yl)ethyl}-1H-pyrrol-2-yl)-1,3,4-thiadiazol-2-yl]ethanol]	141%

Next, values leading:

Emax at 10 µM	SMILES
156%	O=S(=O)(c1ccc(C(CC2CCOCC2)c2ccc(-c3ccc(C(O)CO)cn3)[nH]2)cc1)C1CC1 (stereo not shown) [Example 42, 1-[6-(5-{1-[4-(cyclopropylsulfonyl)phenyl]-2-(tetrahydro-2H-pyran-4-yl)ethyl}-1H-pyrrol-2-yl)pyridin-3-yl]ethane-1,2-diol]
148%	O=S(=O)(c1ccc(C(CC2CCOCC2)c2ccc(-c3ccc(C(CO)CO)cn3)[nH]2)cc1)C1CC1 (stereo not shown) [Example 53, 2-[6-(5-{1-[4-(cyclopropylsulfonyl)phenyl]-2-(tetrahydro-2H-pyran-4-yl)ethyl}-1H-pyrrol-2-yl)pyridin-3-yl]propane-1,3-diol]
151%	O=S(=O)(c1ccc(C(CC2CCOCC2)c2ccc(-c3ccc(CN4CC[S+]([O-])CC4)cn3)[nH]2)cc1)C1CC1 (stereo not shown) [Example 59, 4-{[6-(5-{1-[4-(cyclopropylsulfonyl)phenyl]-2-(tetrahydro-2H-pyran-4-yl)ethyl}-1H-pyrrol-2-yl)pyridin-3-yl]methyl}thiomorpholine 1-oxide]
153%	CC(=O)N1CCN(Cc2ccc(-c3ccc(C(CC4CCOCC4)c4ccc(S(=O)(=O)C5CC5)cc4)[nH]3)nc2)CC1 (stereo not shown) [Example 62, 1-acetyl-4-{[6-(5-{1-[4-(cyclopropylsulfonyl)phenyl]-2-(tetrahydro-2H-pyran-4-yl)ethyl}-1H-pyrrol-2-yl)pyridin-3-yl]methyl}piperazine]
154%	O=S1(=O)CCN(Cc2ccc(-c3ccc(C(CC4CCOCC4)c4ccc(S(=O)(=O)C5CC5)cc4)[nH]3)nc2)CC1 (stereo not shown) [Example 63]
139%	CC(C)(O)C(O)c1ccc(-c2ccc(C(CC3CCOCC3)c3ccc(S(=O)(=O)C4CC4)cc3)[nH]2)nc1 (stereo not shown) [Example 127, 1-[6-(5-{1-[4-(cyclopropylsulfonyl)phenyl]-2-(tetrahydro-2H-pyran-4-yl)ethyl}-1H-pyrrol-2-yl)pyridin-3-yl]-2-methylpropane-1,2-diol]
167%	CC(O)c1cnc(-c2ccc(C(CC3CCOCC3)c3ccc(S(=O)(=O)C4CC4)cc3)[nH]2)s1 (stereo not shown) [Example 151, 1-[2-(5-[1-[4-(cyclopropylsulfonyl)phenyl]-2-(tetrahydro-2H-pyran-4-yl)ethyl]-1H-pyrrol-2-yl)-1,3-thiazol-5-yl]ethanol]
171%	COCC(O)c1ccc(-c2ccc(C(CC3CCOCC3)c3ccc(S(=O)(=O)C4CC4)cc3)[nH]2)nc1 (stereo not shown) [Example 177, 1-[6-(5-[1-[4-(cyclopropylsulfonyl)phenyl]-2-(tetrahydro-2H-pyran-4-yl)ethyl]-1H-pyrrol-2-yl)pyridin-3-yl]-2-methoxyethanol]
